Measured values from US11484539B2, “Compounds and their uses for alleviating menopause-associated symptoms” (Estetra SPRL, priority 2018, dated 2022).

System: post-menopausal women
Test: Hot Flush Weekly Weighted Score, dose-finding study
Format: in vivo
Conditions: for Relative change in Hot Flush Weekly Weighted Score, LS adjusted mean: analysis with placebo grouped with 2.5 and 5 mg; for LS adjusted mean change from baseline in Hot Flush Weekly Weighted Score: 15 mg E4; for Covariate significance, covariate trt1, p_value, relative change in Hot Flush Weekly Weighted Score: 15 mg vs placebo grouped with 2.5 and 5 mg
Experimental: Further, the terms “Hot Flush Weekly Weighted Score”, as used herein, corresponds to a score taking into account frequency and severity which is calculated by using the severity score (as calculated above): [(1× No. of mild VMS)+(2× No. of moderate VMS)+(3× No. of severe VMS)] during a 7 day period.
Such a weighted score was for example used by Notelovitz et al. (“Initial 17β-Estradiol Dose for Treating Vasomotor Symptoms”; Obstetrics and Gynaecology, Vol. 95(5), May 2000, p. 726-731). This score was used to generate the data included in Example 1 further below, under section A. c) “Hot Flush Weekly Weighted Score”.

Compound: C[C@]12CC[C@@H]3c4ccc(O)cc4CC[C@H]3[C@@H]1[C@@H](O)[C@@H](O)[C@@H]2O [E4, 1,3,5 (10)-estratrien-3,15alpha,16alpha,17beta-tetrol]
- Relative change (% from baseline) in Hot Flush Weekly Weighted Score, mean (10 mg E4 QD per os, week 9): −67%
- Mean change from baseline in Hot Flush Weekly Weighted Score (10 mg E4 QD per os, week 10): −109.514
- Relative change (% from baseline) in Hot Flush Weekly Weighted Score, mean (10 mg E4 QD per os, week 10): −68%
- Mean change from baseline in Hot Flush Weekly Weighted Score (10 mg E4 QD per os, week 11): −109.532
- Relative change (% from baseline) in Hot Flush Weekly Weighted Score, mean (10 mg E4 QD per os, week 11): −69%
- Mean change from baseline in Hot Flush Weekly Weighted Score (10 mg E4 QD per os, week 12): −111.764
- Relative change (% from baseline) in Hot Flush Weekly Weighted Score, mean (10 mg E4 QD per os, week 12): −70%
- Difference with placebo, LS adjusted mean, absolute change in Hot Flush Weekly Weighted Score (10 mg E4 vs placebo, week 4): −7.296
- Difference with placebo, LS adjusted mean, absolute change in Hot Flush Weekly Weighted Score (10 mg E4 vs placebo, week 12): −5.078
- Differences with placebo (including ineffective doses 2.5 mg and 5 mg), relative change in Hot Flush Weekly Weighted Score, LS adjusted mean (10.0 mg vs 0 mg, week 4): −0.06006
- Differences with placebo (including ineffective doses 2.5 mg and 5 mg), relative change in Hot Flush Weekly Weighted Score, p_value (10.0 mg vs 0 mg, week 4): 0.4167
- Differences with placebo, relative change in weekly weighted score, p_value (10.0 mg vs 0 mg, week 4): 0.6745
- Differences with placebo (including ineffective doses 2.5 mg and 5 mg), relative change in Hot Flush Weekly Weighted Score, LS adjusted mean (10.0 mg vs 0 mg, week 12): −0.08625
- Differences with placebo (including ineffective doses 2.5 mg and 5 mg), relative change in Hot Flush Weekly Weighted Score, p_value (10.0 mg vs 0 mg, week 12): 0.1404
- Differences with placebo, relative change in weekly weighted score, p_value (10.0 mg vs 0 mg, week 12): 0.7861
- Relative change (% from baseline) in Hot Flush Weekly Weighted Score, mean (10 mg, Week 12): −69%
- Relative change (% from baseline) in weekly weighted score, LS adjusted mean (10 mg, Week 12): −0.6994
- Relative change (% from baseline) in Hot Flush Weekly Weighted Score, mean (10 mg, week 0): 0%
- Relative change (% from baseline) in Hot Flush Weekly Weighted Score, mean (10 mg, week 1): −20%
- Relative change (% from baseline) in Hot Flush Weekly Weighted Score, mean (10 mg, week 2): −34%
- Relative change (% from baseline) in Hot Flush Weekly Weighted Score, mean (10 mg, week 3): −46%
- Relative change (% from baseline) in Hot Flush Weekly Weighted Score, mean (10 mg, week 4): −53%
- Relative change (% from baseline) in weekly weighted score, LS adjusted mean (10 mg, week 4): −0.5419
- Relative change in Hot Flush Weekly Weighted Score, LS adjusted mean (10 mg, week 4): −0.5137
- Relative change (% from baseline) in Hot Flush Weekly Weighted Score, mean (10 mg, week 5): −57%
- Relative change (% from baseline) in Hot Flush Weekly Weighted Score, mean (10 mg, week 6): −62%
- Relative change (% from baseline) in Hot Flush Weekly Weighted Score, mean (10 mg, week 7): −64%
- Relative change (% from baseline) in Hot Flush Weekly Weighted Score, mean (10 mg, week 8): −66%
- Relative change (% from baseline) in Hot Flush Weekly Weighted Score, mean (10 mg, week 9): −66%
- Relative change (% from baseline) in Hot Flush Weekly Weighted Score, mean (10 mg, week 10): −68%
- Relative change (% from baseline) in Hot Flush Weekly Weighted Score, mean (10 mg, week 11): −68%
- Relative change in Hot Flush Weekly Weighted Score, LS adjusted mean (10 mg, week 12): −0.6776
- LS adjusted mean change from baseline in Hot Flush Weekly Weighted Score (week 4): −106.3
- LS adjusted mean change from baseline in Hot Flush Weekly Weighted Score (week 12): −130.6
- Mean change from baseline in Hot Flush Weekly Weighted Score (15 mg E4 QD per os, week 0): 2.219
- Mean change from baseline in Hot Flush Weekly Weighted Score (15 mg E4 QD per os, week 1): −33.1745
- Relative change (% from baseline) in Hot Flush Weekly Weighted Score, mean (15 mg E4 QD per os, week 1): −19%
- Mean change from baseline in Hot Flush Weekly Weighted Score (15 mg E4 QD per os, week 2): −67.6983
- Relative change (% from baseline) in Hot Flush Weekly Weighted Score, mean (15 mg E4 QD per os, week 2): −43%
- Mean change from baseline in Hot Flush Weekly Weighted Score (15 mg E4 QD per os, week 3): −85.1915
- Relative change (% from baseline) in Hot Flush Weekly Weighted Score, mean (15 mg E4 QD per os, week 3): −56%
- Mean change from baseline in Hot Flush Weekly Weighted Score (15 mg E4 QD per os, week 4): −98.8329
- Relative change (% from baseline) in Hot Flush Weekly Weighted Score, mean (15 mg E4 QD per os, week 4): −66%
- Mean change from baseline in Hot Flush Weekly Weighted Score (15 mg E4 QD per os, week 5): −105.223
- Relative change (% from baseline) in Hot Flush Weekly Weighted Score, mean (15 mg E4 QD per os, week 5): −70%
- Mean change from baseline in Hot Flush Weekly Weighted Score (15 mg E4 QD per os, week 6): −110.268
- Relative change (% from baseline) in Hot Flush Weekly Weighted Score, mean (15 mg E4 QD per os, week 6): −74%
- Mean change from baseline in Hot Flush Weekly Weighted Score (15 mg E4 QD per os, week 7): −115.263
- Relative change (% from baseline) in Hot Flush Weekly Weighted Score, mean (15 mg E4 QD per os, week 7): −78%
- Mean change from baseline in Hot Flush Weekly Weighted Score (15 mg E4 QD per os, week 8): −115.656
- Relative change (% from baseline) in Hot Flush Weekly Weighted Score, mean (15 mg E4 QD per os, week 8): −78%
- Mean change from baseline in Hot Flush Weekly Weighted Score (15 mg E4 QD per os, week 9): −118.578
- Relative change (% from baseline) in Hot Flush Weekly Weighted Score, mean (15 mg E4 QD per os, week 9): −80%
- Mean change from baseline in Hot Flush Weekly Weighted Score (15 mg E4 QD per os, week 10): −116.853
- Relative change (% from baseline) in Hot Flush Weekly Weighted Score, mean (15 mg E4 QD per os, week 10): −79%
- Mean change from baseline in Hot Flush Weekly Weighted Score (15 mg E4 QD per os, week 11): −119.365
- Relative change (% from baseline) in Hot Flush Weekly Weighted Score, mean (15 mg E4 QD per os, week 11): −80%
- Mean change from baseline in Hot Flush Weekly Weighted Score (15 mg E4 QD per os, week 12): −121.777
- Relative change (% from baseline) in Hot Flush Weekly Weighted Score, mean (15 mg E4 QD per os, week 12): −82%
- Difference with placebo, LS adjusted mean, absolute change in Hot Flush Weekly Weighted Score (15 mg E4 vs placebo, week 4): −28.06
- Difference with placebo, LS adjusted mean, absolute change in Hot Flush Weekly Weighted Score (15 mg E4 vs placebo, week 12): −25.91
- Differences with placebo (including ineffective doses 2.5 mg and 5 mg), relative change in Hot Flush Weekly Weighted Score, LS adjusted mean (15.0 mg vs 0 mg, week 4): −0.1788
- Differences with placebo (including ineffective doses 2.5 mg and 5 mg), relative change in Hot Flush Weekly Weighted Score, p_value (15.0 mg vs 0 mg, week 4): 0.00178
- Differences with placebo, relative change in weekly weighted score, p_value (15.0 mg vs 0 mg, week 4): 0.0267
- Differences with placebo (including ineffective doses 2.5 mg and 5 mg), relative change in Hot Flush Weekly Weighted Score, LS adjusted mean (15.0 mg vs 0 mg, week 12): −0.177
- Differences with placebo (including ineffective doses 2.5 mg and 5 mg), relative change in Hot Flush Weekly Weighted Score, p_value (15.0 mg vs 0 mg, week 12): 0.00097
- Differences with placebo, relative change in weekly weighted score, p_value (15.0 mg vs 0 mg, week 12): 0.0276
- Relative change (% from baseline) in Hot Flush Weekly Weighted Score, mean (15 mg, Week 12): −81%
- Relative change (% from baseline) in weekly weighted score, LS adjusted mean (15 mg, Week 12): −0.8122
- Relative change (% from baseline) in Hot Flush Weekly Weighted Score, mean (15 mg, week 0): 0%
- Relative change (% from baseline) in Hot Flush Weekly Weighted Score, mean (15 mg, week 1): −22%
- Relative change (% from baseline) in Hot Flush Weekly Weighted Score, mean (15 mg, week 2): −45%
- Relative change (% from baseline) in Hot Flush Weekly Weighted Score, mean (15 mg, week 3): −56%
- Relative change (% from baseline) in Hot Flush Weekly Weighted Score, mean (15 mg, week 4): −66%
- Relative change (% from baseline) in weekly weighted score, LS adjusted mean (15 mg, week 4): −0.6503
- Relative change in Hot Flush Weekly Weighted Score, LS adjusted mean (15 mg, week 4): −0.6324
- Relative change (% from baseline) in Hot Flush Weekly Weighted Score, mean (15 mg, week 5): −70%
- Relative change (% from baseline) in Hot Flush Weekly Weighted Score, mean (15 mg, week 6): −72%
- Relative change (% from baseline) in Hot Flush Weekly Weighted Score, mean (15 mg, week 7): −75%
- Relative change (% from baseline) in Hot Flush Weekly Weighted Score, mean (15 mg, week 8): −76%
- Relative change (% from baseline) in Hot Flush Weekly Weighted Score, mean (15 mg, week 9): −78%
- Relative change (% from baseline) in Hot Flush Weekly Weighted Score, mean (15 mg, week 10): −77%
- Relative change (% from baseline) in Hot Flush Weekly Weighted Score, mean (15 mg, week 11): −79%
- Relative change in Hot Flush Weekly Weighted Score, LS adjusted mean (15 mg, week 12): −0.7683
- Covariate significance, covariate trt1, p_value, relative change in Hot Flush Weekly Weighted Score (week 4, 10 mg): 0.0037
- Covariate significance, covariate trt1, p_value, relative change in Hot Flush Weekly Weighted Score (week 12, 10 mg): 0.0015
